The target in data set [1] is T1, cPKC-a (Homo sapiens, UniProt P17252).
T1 construct: these three PKC isoenzymes are abundantly ex- pressed in A549 cells; endogenous in cells; host or cells: A549 human lung carcinoma cells
Nature of the data set: Subcellular localisation of cPKC-alpha in A549 cells, Western blot of cellular fractions. Type of data set: cell-based. (In general: In western blotting, separated proteins are transferred to a membrane and probed.)
Procedure: (§1) Compounds with varying degrees of potency and specificity for PKC were investigated in A549 and MCF-7 carcinoma cells. […] To substantiate the role of PKC in the growth inhibition caused by these agents, cells were depleted of PKC by incubation with bryostatin 1 (1 jsM). […] The subcellular distribution of PKC-z-, -e and -< was measured by Western blot analysis. […] Cell growth Human A549 lung and MCF-7 breast carcinoma cells were obtained from the European Collection of Animal Cell Cul- tures (Salisbury, UK). Cells (passage number 10-30) were cultured in an atmosphere of 5% carbon dioxide, the former in Ham's F-12 medium with penicillin/streptomycin, the lat- ter in minimum essential medium (Eagle's modification) with additional pyruvate (1 mM) and non-essential amino acids. Both media were supplemented with 10% FCS (Imperial Laboratories Europe, Andover, UK, and Gibco) and gluta- mine (2 mM). Cells were subcultured routinely twice weekly to maintain logarithmic growth. For cell proliferation studies cells were seeded at a density of 1.3 x 104 cm-2 and incubat- ed with 3 ml of medium including agents, which was replen- ished at intervals of 48 h (A549) or 72 h (MCF-7). Following incubation for 4 days (A549) or 6 days (MCF-7) with drugs, cell number was assessed using a Coulter Counter Model ZM. […] Bryostatin was removed by extensive washing of the cells followed by a 2 h recovery period. […] In some experiments cells were incubated with inhibitor for 48 rather than 24 h, in this case bryostation was not removed and left in the incubate. […] Radioactivity was counted using a Packard 1500 Tricarb scintillation counter. […] The amount of protein loaded per lane was 20 tg for detection of cPKC-oc and 30 lg for nPKC-e. Detection was by enhanced chemi- luminescence generated by oxidation of luminol in the presence of hydrogen peroxide using an ECL kit from Amer- sham International.

For data set [2], the system named is A549 lung carcinoma cells. Nature of the data set: Cell growth inhibition by cell counting (Coulter Counter), A549. In kind it is cell-based, human.
Procedure: as §1
Data set [3] deals with T2, nPKC-e (Homo sapiens, UniProt Q02156).
T2 sequence (Q02156 1-737): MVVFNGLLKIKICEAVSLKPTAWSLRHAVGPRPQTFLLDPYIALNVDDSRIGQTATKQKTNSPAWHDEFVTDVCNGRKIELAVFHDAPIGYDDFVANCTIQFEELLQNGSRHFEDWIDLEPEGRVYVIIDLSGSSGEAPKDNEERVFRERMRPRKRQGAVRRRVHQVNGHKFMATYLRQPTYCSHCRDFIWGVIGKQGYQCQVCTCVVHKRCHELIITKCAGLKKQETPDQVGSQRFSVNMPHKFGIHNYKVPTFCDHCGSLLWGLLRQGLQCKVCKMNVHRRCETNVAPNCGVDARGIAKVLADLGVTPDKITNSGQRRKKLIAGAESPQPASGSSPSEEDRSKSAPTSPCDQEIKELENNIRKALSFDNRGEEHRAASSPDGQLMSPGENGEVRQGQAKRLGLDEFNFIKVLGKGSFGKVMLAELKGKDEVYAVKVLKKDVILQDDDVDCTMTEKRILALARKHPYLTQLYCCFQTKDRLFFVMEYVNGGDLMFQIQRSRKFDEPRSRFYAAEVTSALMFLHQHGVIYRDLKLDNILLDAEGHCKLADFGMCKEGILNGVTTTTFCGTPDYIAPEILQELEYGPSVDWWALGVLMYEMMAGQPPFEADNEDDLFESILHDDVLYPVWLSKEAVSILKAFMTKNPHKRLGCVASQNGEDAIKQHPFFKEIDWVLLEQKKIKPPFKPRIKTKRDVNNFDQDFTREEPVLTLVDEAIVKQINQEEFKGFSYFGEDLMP
Nature of the data set: Subcellular localisation of nPKC-epsilon in A549 cells, Western blot of cytosolic, particulate and nuclear fractions.
Procedure: as §1

Data set [4] has as its system PKC-depleted A549 cells. Nature of the data set: [3H]Tdr incorporation into PKC-depleted (bryostatin 1 pretreated) A549 cells. Type of data set: cell-based, human.
Procedure: as §1
Data set [5] deals with A549 cells. Nature of the data set: [3H]Tdr incorporation into control (naive) A549 cells. Type of data set: cell-based, human.
Procedure: as §1
The subject of data set [6] is cPKC-a and nPKC-e. Nature of the data set: PKC down-regulation in A549 cells by bryostatin 1, Western blot. The note with it: bryostatin 1 at 1 (micromolar) for 24 h. Type of data set: cell-based, human.
Procedure: To substantiate the role of PKC in the growth inhibition caused by these agents, cells were depleted of PKC by incubation with bryostatin 1 (1 jsM). […] The subcellular distribution of PKC-z-, -e and -< was measured by Western blot analysis. […] Bryostatin was removed by extensive washing of the cells followed by a 2 h recovery period. […] In some experiments cells were incubated with inhibitor for 48 rather than 24 h, in this case bryostation was not removed and left in the incubate. […] The amount of protein loaded per lane was 20 tg for detection of cPKC-oc and 30 lg for nPKC-e. Detection was by enhanced chemi- luminescence generated by oxidation of luminol in the presence of hydrogen peroxide using an ECL kit from Amer- sham International.
The subject of data set [7] is A549 lung carcinoma cells. On the set-up: method as in Dale and Gescher, 1989; Stanwell et al., 1994. The conditions noted are these: 24 h with bryostatin 1 (1 micromolar); ref Dale and Gescher, 1989; Stanwell et al., 1994; cited from earlier work.
For data set [8] the following is noted: phase I trials, ref Phillip et al., 1993, Prendiville et al.; cited from earlier work.
Where [9] appears, read: A549 cells, 30 min, with TPA 25 nM, staurosporine effect not significant (P = 0.08).
The mark [10] stands for this setting: Homo sapiens, A549, weaker enzyme inhibitors, read-out: concentrations which arrested growth.
[11] abbreviates: Homo sapiens, A549, read-out: IC50 for inhibition of [3H]Tdr incorporation.
Setting [12] is: weaker enzyme inhibitors, read-out: concentrations which arrested growth.
The mark [13] stands for this setting: A549 and MCF-7 cells, read-out: IC50 values for growth arrest (stronger growth inhibitors).
Where [14] appears, read: PKC-depleted A549 cells (bryostatin 1 for 24 h, washed), 24 h with inhibitor, read-out: IC50 for inhibition of [3H]Tdr incorporation.
The mark [15] stands for this setting: control A549 cells, 24 h with inhibitor, read-out: IC50 for inhibition of [3H]Tdr incorporation.

We go through 11 compounds from article PMC2033742, “Comparison of ability of protein kinase C inhibitors to arrest cell growth and to alter cellular protein kinase C localisation” (British Journal of Cancer, 1995).

Read-outs that look alike come from different tables or passages of the source. Where only a bound is given, the exact number is not on record here.

Regarding `CO[C@@H]1[C@H](N(C)C(=O)c2ccccc2)C[C@H]2O[C@]1(C)n1c3ccccc3c3c4c(c5c6ccccc6n2c5c31)C(=O)NC4` [CGP 41251], the “effect on TPA-induced cPKC-a redistribution” value (from here on “effect”) in data set [1] (setting [9]) is recorded as “failed to affect TPA-induced cPKC-a redistribution”.
As to `COc1c(C[C@@H](C)OC(=O)Oc2ccc(O)cc2)c2c3c(C[C@@H](C)OC(=O)c4ccccc4)c(OC)c(=O)c4c(O)cc(OC)c(c5c(OC)cc(O)c(c1=O)c52)c43` [Calphostin C, calphostin C], the IC50 in data set [2] (Homo sapiens, A549 and MCF-7 cells, read-out: IC50 values for growth arrest (stronger growth inhibitors)) was less than 1000 nM. Moreover, the “effect” value in data set [1] is “failed to affect TPA-induced cPKC-a redistribution”.
As to `CN(C)CCCn1cc(C2=C(c3c[nH]c4ccccc34)C(=O)NC2=O)c2ccccc21` [GF 109203X], in data set [2] (A549 and MCF-7 cells, read-out: IC50 for interference with cell growth), the IC50 is more than 7000 nM. Besides, in data set [1], the “effect” value is given as “failed to affect TPA-induced cPKC-a redistribution”. Besides, in data set [3], the “concentration which changed nPKC-e localisation significantly” value is 0.1 pM.
Consider `CC1CNCCN1S(=O)(=O)c1cccc2cnccc12` (stereo not drawn) [H-7, 1-(5-Isoquinolinesulfonyl)-2-methylpiperazine], for which the results for the IC50 in data set [2] (setting [10]), in data set [4] (setting [11]) and in data set [5] (setting [11]) were more than 1000 nM, 20000 nM and 32000 nM, respectively. Besides, the “effect” value in data set [1] is “failed to affect TPA-induced cPKC-a redistribution”.
As to `CCCCCCCCCCCCCCCCOP(=O)([O-])OCC[N+](C)(C)C` [Miltefosine, Hexadecylphosphocholine], in data set [2] (setting [10]), the IC50 was more than 1000 nM. In addition, the “effect” value in data set [1] (setting [9]) is listed as “failed to affect TPA-induced cPKC-a redistribution”.
Regarding `CCCCCCCCCCCCC(=O)N1CCCCC1CNC(=O)C(N)CCCCN` (stereo not drawn) [NPC 15-437, 2,6-Diamino-N-([l-(1-oxotridecyl)-2-piperidinyl]methyl)hexanamide], in data set [2] (setting [12]), the IC50 is more than 1000 nM.
For `Cn1cc(C2=C(c3cn(CCCSC(=N)N)c4ccccc34)C(=O)NC2=O)c2ccccc21` [RO 31-8220], the IC50 in data set [2] (setting [13]) is less than 1000 nM; in data set [4] (setting [14]) it was 1600 nM; in data set [5] (setting [15]) it was 1900 nM. In addition, the “effect” value in data set [1] is on record as “failed to affect TPA-induced cPKC-a redistribution”. Also, the “concentration which changed nPKC-e localisation significantly” value in data set [3] is on record as 0.1 pM.
Take `CN[C@@H]1C[C@H]2O[C@@](C)([C@@H]1OC)n1c3ccccc3c3c4c(c5c6ccccc6n2c5c31)C(=O)NC4` [Staurosporine, staurosporine]: in data set [5] (setting [11]), the IC50 turned out to be 1.2 nM.
Consider `CCCCCCCCCCCCC/C=C/[C@@H](O)[C@H](CO)[N+](C)(C)C` [TMS, trimethylsphingosine], for which, in data set [2] (setting [12]), the IC50 was more than 1000 nM.
As to `CN[C@@H]1C[C@H]2O[C@@](C)([C@@H]1OC)n1c3ccccc3c3c4c(c5c6ccccc6n2c5c31)C(=O)N[C@H]4O` [UCN-01], the IC50 in data set [2] (setting [13]) is less than 1000 nM; in data set [4] (setting [14]), 47 nM; in data set [5] (setting [15]) it was 68 nM. For the same compound, the “effect” value in data set [1] (setting [9]) is reported as “behaved similarly”. Moreover, the “blots in which TPA-induced cPKC-a translocation was augmented” value in data set [1] (A549 cells, UCN-01 at 1 (micromolar) with TPA 25 nM) is given as “three out of six”. Besides, the “concentration required for translocation relative to IC50 for growth of A549 cells” value in data set [3] (A549) was 2- to 3 fold. For the same compound, the “concentration which changed nPKC-e localisation significantly” value in data set [3] (A549 cells, 30 min, P<0.05 vs control) was 0.1 pM.
With `CCC/C=C/C=C/C(=O)O[C@H]1/C(=C/C(=O)OC)C[C@H]2C[C@H]([C@@H](C)O)OC(=O)C[C@H](O)C[C@@H]3C[C@H](OC(C)=O)C(C)(C)[C@](O)(C[C@@H]4C/C(=C/C(=O)OC)C[C@H](/C=C/C(C)(C)[C@]1(O)O2)O4)O3` [bryostatin 1], in data set [6], the “down-regulation of cPKC-a and nPKC-e” value is given as “completely down-regulated”. Further, the “growth inhibition under PKC depletion conditions” value in data set [7] is “negligible”. The dose-limiting toxicity entry in data set [8] is “myalgia”.
